Organism: Rattus norvegicus
Assay: Open TG-GATES - Regimen: Daily Repeat
Format: toxicity, organism-based, Sprague-Dawley
Parameters: regimen Daily Repeat, gender Male, age 6 weeks
Conditions: in vivo, po, route gavage; for APTT / Bas / Eos / Fbg / Hb / Ht / Lym / MCH / MCHC / MCV / Mono / Neu / PT / Plat / RBC / Ret / WBC: tissue Blood; for KIDNEY_L / KIDNEY_R / KIDNEY_TOTAL: tissue Kidney; for LIVER: tissue Liver; for A/G / ALP / ALT / AST / BUN / CRE / Ca / Cl / DBIL / GLC / IP / K / LDH / Na / PL / RALB / TBIL / TC / TG / TP / gamma-GTP: tissue Plasma
[1] = 300 mg/kg, 72 h, dose level Middle, time 3 day
[2] = 300 mg/kg, […], dose level Middle, time 7 day
[3] = 300 mg/kg, […], dose level Middle, time 14 day
[4] = 300 mg/kg, […], dose level Middle, time 28 day
[5] = 1000 mg/kg, 72 h, dose level High, time 3 day
[6] = 1000 mg/kg, […], dose level High, time 7 day
[7] = 1000 mg/kg, […], dose level High, time 14 day
[8] = 1000 mg/kg, […], dose level High, time 28 day

CC(=O)[C@@]1(O)CC[C@H]2[C@@H]3C=C(Cl)C4=CC(=O)CC[C@]4(C)[C@H]3CC[C@@]21C [CHLORMADINONE]
TERMINAL_BW [1]: 228.1 g
APTT [1]: 27.6 s
Bas [1]: 0%
Eos [1]: 1%
Fbg [1]: 334.4 mg/dL
Hb [1]: 14.1 g/dL
Ht [1]: 42.3%
Lym [1]: 76.8%
MCH [1]: 20.6 pg
MCHC [1]: 33.2%
MCV [1]: 62 fL
Mono [1]: 3.4%
Neu [1]: 18.4%
PT [1]: 14.8 s
Plat [1]: 130.2 x10_4/uL
RBC [1]: 684 x10_4/ul
Ret [1]: 5.9%
WBC [1]: 96.1 x10_2/uL
KIDNEY_L [1]: 1 g
KIDNEY_R [1]: 1 g
KIDNEY_TOTAL [1]: 1.9 g
LIVER [1]: 11 g
A/G [1]: 1.2
ALP [1]: 1623.2 IU/L
ALT [1]: 51 IU/L
AST [1]: 76.4 IU/L
BUN [1]: 17.2 mg/dL
CRE [1]: 0.2 mg/dL
Ca [1]: 11 mg/dL
Cl [1]: 106 meq/L
DBIL [1]: 0 mg/dL
GLC [1]: 194.2 mg/dL
IP [1]: 7.5 mg/dL
K [1]: 4.6 meq/L
LDH [1]: 243.2 IU/L
Na [1]: 141.4 meq/L
PL [1]: 172.4 mg/dL
RALB [1]: 3.2 g/dL
TBIL [1]: 0.008 mg/dL
TC [1]: 77 mg/dL
TG [1]: 181.4 mg/dL
TP [1]: 5.8 g/dL
gamma-GTP [1]: 1.4 IU/L
TERMINAL_BW [2]: 257.8 g
TERMINAL_BW [3]: 297.5 g
TERMINAL_BW [4]: 346.1 g
APTT [2]: 29.5 s
Bas [2]: 0%
Eos [2]: 0.6%
Fbg [2]: 335.8 mg/dL
Hb [2]: 14.7 g/dL
Ht [2]: 42.9%
Lym [2]: 86%
MCH [2]: 20.8 pg
MCHC [2]: 34.2%
MCV [2]: 60.9 fL
Mono [2]: 2.4%
Neu [2]: 10.2%
PT [2]: 14.8 s
Plat [2]: 129.9 x10_4/uL
RBC [2]: 704.2 x10_4/ul
Ret [2]: 4.3%
WBC [2]: 119.7 x10_2/uL
APTT [3]: 28.4 s
Bas [3]: 0%
Eos [3]: 1%
Fbg [3]: 326.6 mg/dL
Hb [3]: 15.2 g/dL
Ht [3]: 44.7%
Lym [3]: 78%
MCH [3]: 19.3 pg
MCHC [3]: 34%
MCV [3]: 56.8 fL
Mono [3]: 2.6%
Neu [3]: 17.6%
PT [3]: 14.8 s
Plat [3]: 105.8 x10_4/uL
RBC [3]: 787.4 x10_4/ul
Ret [3]: 3.1%
WBC [3]: 84.6 x10_2/uL
APTT [4]: 28 s
Bas [4]: 0%
Eos [4]: 1%
Fbg [4]: 313.2 mg/dL
Hb [4]: 16.2 g/dL
Ht [4]: 46.4%
Lym [4]: 82.8%
MCH [4]: 18.9 pg
MCHC [4]: 34.9%
MCV [4]: 54 fL
Mono [4]: 2.2%
Neu [4]: 12.8%
PT [4]: 14.8 s
Plat [4]: 92.9 x10_4/uL
RBC [4]: 860 x10_4/ul
Ret [4]: 2%
WBC [4]: 105.1 x10_2/uL
KIDNEY_L [2]: 1 g
KIDNEY_R [2]: 1 g
KIDNEY_TOTAL [2]: 2.1 g
KIDNEY_L [3]: 1.1 g
KIDNEY_R [3]: 1.1 g
KIDNEY_TOTAL [3]: 2.2 g
KIDNEY_L [4]: 1.2 g
KIDNEY_R [4]: 1.2 g
KIDNEY_TOTAL [4]: 2.4 g
LIVER [2]: 12.6 g
LIVER [3]: 13.1 g
LIVER [4]: 13.4 g
A/G [2]: 1.1
ALP [2]: 1379.4 IU/L
ALT [2]: 53 IU/L
AST [2]: 70.8 IU/L
BUN [2]: 19.4 mg/dL
CRE [2]: 0.2 mg/dL
Ca [2]: 10.9 mg/dL
Cl [2]: 105.2 meq/L
DBIL [2]: 0 mg/dL
GLC [2]: 194.6 mg/dL
IP [2]: 7.4 mg/dL
K [2]: 4.6 meq/L
LDH [2]: 198.8 IU/L
Na [2]: 139.4 meq/L
PL [2]: 182.2 mg/dL
RALB [2]: 3.2 g/dL
TBIL [2]: 0 mg/dL
TC [2]: 91.2 mg/dL
TG [2]: 205.8 mg/dL
TP [2]: 6 g/dL
gamma-GTP [2]: 1.8 IU/L
A/G [3]: 1.1
ALP [3]: 1447.6 IU/L
ALT [3]: 44.2 IU/L
AST [3]: 67 IU/L
BUN [3]: 20 mg/dL
CRE [3]: 0.2 mg/dL
Ca [3]: 10.5 mg/dL
Cl [3]: 106.8 meq/L
DBIL [3]: 0 mg/dL
GLC [3]: 196.2 mg/dL
IP [3]: 6.9 mg/dL
K [3]: 4.5 meq/L
LDH [3]: 161.4 IU/L
Na [3]: 141.4 meq/L
PL [3]: 171.6 mg/dL
RALB [3]: 3.1 g/dL
TBIL [3]: 0.002 mg/dL
TC [3]: 83.8 mg/dL
TG [3]: 173 mg/dL
TP [3]: 6 g/dL
gamma-GTP [3]: 1.8 IU/L
A/G [4]: 1.1
ALP [4]: 1248.8 IU/L
ALT [4]: 61.6 IU/L
AST [4]: 76.6 IU/L
BUN [4]: 19.4 mg/dL
CRE [4]: 0.2 mg/dL
Ca [4]: 10.6 mg/dL
Cl [4]: 105.6 meq/L
DBIL [4]: 0 mg/dL
GLC [4]: 186.8 mg/dL
IP [4]: 6 mg/dL
K [4]: 4 meq/L
LDH [4]: 156.2 IU/L
Na [4]: 141.2 meq/L
PL [4]: 171 mg/dL
RALB [4]: 3.3 g/dL
TBIL [4]: 0.012 mg/dL
TC [4]: 89.2 mg/dL
TG [4]: 153.6 mg/dL
TP [4]: 6.3 g/dL
gamma-GTP [4]: 2.4 IU/L
TERMINAL_BW [5]: 236.9 g
APTT [5]: 28 s
Bas [5]: 0%
Eos [5]: 1.2%
Fbg [5]: 321.4 mg/dL
Hb [5]: 13.9 g/dL
Ht [5]: 42%
Lym [5]: 76.8%
MCH [5]: 20.2 pg
MCHC [5]: 33.1%
MCV [5]: 61 fL
Mono [5]: 3%
Neu [5]: 18.2%
PT [5]: 14.4 s
Plat [5]: 126.4 x10_4/uL
RBC [5]: 690 x10_4/ul
Ret [5]: 6.9%
WBC [5]: 122 x10_2/uL
KIDNEY_L [5]: 1 g
KIDNEY_R [5]: 1 g
KIDNEY_TOTAL [5]: 2 g
LIVER [5]: 12.4 g
A/G [5]: 1.2
ALP [5]: 1434.6 IU/L
ALT [5]: 53 IU/L
AST [5]: 71 IU/L
BUN [5]: 17.4 mg/dL
CRE [5]: 0.2 mg/dL
Ca [5]: 11 mg/dL
Cl [5]: 105.2 meq/L
DBIL [5]: 0 mg/dL
GLC [5]: 191.8 mg/dL
IP [5]: 7.7 mg/dL
K [5]: 4.8 meq/L
LDH [5]: 190.2 IU/L
Na [5]: 140.4 meq/L
PL [5]: 198.4 mg/dL
RALB [5]: 3.3 g/dL
TBIL [5]: 0.004 mg/dL
TC [5]: 95.2 mg/dL
TG [5]: 154.2 mg/dL
TP [5]: 6 g/dL
gamma-GTP [5]: 2 IU/L
TERMINAL_BW [6]: 245 g
TERMINAL_BW [7]: 286.4 g
TERMINAL_BW [8]: 342.2 g
APTT [6]: 30 s
Bas [6]: 0%
Eos [6]: 0.8%
Fbg [6]: 327.6 mg/dL
Hb [6]: 15.1 g/dL
Ht [6]: 44.5%
Lym [6]: 84.4%
MCH [6]: 20.2 pg
MCHC [6]: 34%
MCV [6]: 59.5 fL
Mono [6]: 2.2%
Neu [6]: 11.8%
PT [6]: 15 s
Plat [6]: 127.9 x10_4/uL
RBC [6]: 748.8 x10_4/ul
Ret [6]: 3.8%
WBC [6]: 120.3 x10_2/uL
APTT [7]: 28.9 s
Bas [7]: 0%
Eos [7]: 1%
Fbg [7]: 322 mg/dL
Hb [7]: 15.2 g/dL
Ht [7]: 45%
Lym [7]: 80%
MCH [7]: 19.7 pg
MCHC [7]: 33.9%
MCV [7]: 58.1 fL
Mono [7]: 2.8%
Neu [7]: 14.4%
PT [7]: 14.7 s
Plat [7]: 100.3 x10_4/uL
RBC [7]: 774.6 x10_4/ul
Ret [7]: 2.6%
WBC [7]: 106.2 x10_2/uL
APTT [8]: 29.7 s
Bas [8]: 0%
Eos [8]: 1%
Fbg [8]: 308 mg/dL
Hb [8]: 15.8 g/dL
Ht [8]: 45.5%
Lym [8]: 86.4%
MCH [8]: 18.2 pg
MCHC [8]: 34.9%
MCV [8]: 52.1 fL
Mono [8]: 2.2%
Neu [8]: 9.6%
PT [8]: 15.1 s
Plat [8]: 91.7 x10_4/uL
RBC [8]: 873 x10_4/ul
Ret [8]: 1.9%
WBC [8]: 94.9 x10_2/uL
KIDNEY_L [6]: 1 g
KIDNEY_R [6]: 1 g
KIDNEY_TOTAL [6]: 1.9 g
KIDNEY_L [7]: 1.1 g
KIDNEY_R [7]: 1.1 g
KIDNEY_TOTAL [7]: 2.2 g
KIDNEY_L [8]: 1.2 g
KIDNEY_R [8]: 1.3 g
KIDNEY_TOTAL [8]: 2.5 g
LIVER [6]: 11 g
LIVER [7]: 13.1 g
LIVER [8]: 14.6 g
A/G [6]: 1.3
ALP [6]: 1456.8 IU/L
ALT [6]: 45.8 IU/L
AST [6]: 71.4 IU/L
BUN [6]: 19.6 mg/dL
CRE [6]: 0.2 mg/dL
Ca [6]: 10.8 mg/dL
Cl [6]: 106.8 meq/L
DBIL [6]: 0 mg/dL
GLC [6]: 187.2 mg/dL
IP [6]: 7.2 mg/dL
K [6]: 4.6 meq/L
LDH [6]: 194 IU/L
Na [6]: 140 meq/L
PL [6]: 163.8 mg/dL
RALB [6]: 3.3 g/dL
TBIL [6]: 0.006 mg/dL
TC [6]: 83.2 mg/dL
TG [6]: 136 mg/dL
TP [6]: 6 g/dL
gamma-GTP [6]: 2 IU/L
A/G [7]: 1.2
ALP [7]: 1187.6 IU/L
ALT [7]: 45.2 IU/L
AST [7]: 71.2 IU/L
BUN [7]: 18.6 mg/dL
CRE [7]: 0.2 mg/dL
Ca [7]: 10.7 mg/dL
Cl [7]: 107.6 meq/L
DBIL [7]: 0 mg/dL
GLC [7]: 195 mg/dL
IP [7]: 6.8 mg/dL
K [7]: 4.4 meq/L
LDH [7]: 160.8 IU/L
Na [7]: 142 meq/L
PL [7]: 171.2 mg/dL
RALB [7]: 3.3 g/dL
TBIL [7]: 0.004 mg/dL
TC [7]: 81.2 mg/dL
TG [7]: 177.4 mg/dL
TP [7]: 6.1 g/dL
gamma-GTP [7]: 2 IU/L
A/G [8]: 1
ALP [8]: 1076 IU/L
ALT [8]: 58.4 IU/L
AST [8]: 70.8 IU/L
BUN [8]: 17.4 mg/dL
CRE [8]: 0.2 mg/dL
Ca [8]: 10.5 mg/dL
Cl [8]: 105.2 meq/L
DBIL [8]: 0 mg/dL
GLC [8]: 194.8 mg/dL
IP [8]: 6.1 mg/dL
K [8]: 3.9 meq/L
LDH [8]: 156 IU/L
Na [8]: 142 meq/L
PL [8]: 190.4 mg/dL
RALB [8]: 3.4 g/dL
TBIL [8]: 0.006 mg/dL
TC [8]: 97.6 mg/dL
TG [8]: 161.6 mg/dL
TP [8]: 6.6 g/dL
gamma-GTP [8]: 2.6 IU/L

— ChEMBL document CHEMBL3885861, “Open TG-GATES”
